Laboratory results published in the kinase profiling compilation of Christmann-Franck et al. (2016).

Key:
Experiment in all cases: KINOMEscan competition binding
Details in all cases: compound 10.0 µM
[1] = test system: FLT3 (human), P36888 [R834Q]
[2] = test system: MET (human), P08581 [Y1235D]
[3] = test system: RET (human), P07949 [V804M]
[4] = test system: RET (human), P07949 [M918T]
[5] = test system: FLT3 (human), P36888 [D835H]
[6] = test system: KIT (human), P10721 [V559D/V654A]
[7] = test system: EGFR (human), P00533 [752-759 del]
[8] = test system: EGFR (human), P00533 [T790M/L858R]
[9] = test system: ABL1 (human), P00519 [Y253F]
[10] = test system: KIT (human), P10721 [L576P]
[11] = test system: EGFR (human), P00533 [T790M]
[12] = test system: EGFR (human), P00533 [747-751 del / S ins]

Chain of KIT (human), P10721 [L576P] (P10721 whole entry L576P, looked up): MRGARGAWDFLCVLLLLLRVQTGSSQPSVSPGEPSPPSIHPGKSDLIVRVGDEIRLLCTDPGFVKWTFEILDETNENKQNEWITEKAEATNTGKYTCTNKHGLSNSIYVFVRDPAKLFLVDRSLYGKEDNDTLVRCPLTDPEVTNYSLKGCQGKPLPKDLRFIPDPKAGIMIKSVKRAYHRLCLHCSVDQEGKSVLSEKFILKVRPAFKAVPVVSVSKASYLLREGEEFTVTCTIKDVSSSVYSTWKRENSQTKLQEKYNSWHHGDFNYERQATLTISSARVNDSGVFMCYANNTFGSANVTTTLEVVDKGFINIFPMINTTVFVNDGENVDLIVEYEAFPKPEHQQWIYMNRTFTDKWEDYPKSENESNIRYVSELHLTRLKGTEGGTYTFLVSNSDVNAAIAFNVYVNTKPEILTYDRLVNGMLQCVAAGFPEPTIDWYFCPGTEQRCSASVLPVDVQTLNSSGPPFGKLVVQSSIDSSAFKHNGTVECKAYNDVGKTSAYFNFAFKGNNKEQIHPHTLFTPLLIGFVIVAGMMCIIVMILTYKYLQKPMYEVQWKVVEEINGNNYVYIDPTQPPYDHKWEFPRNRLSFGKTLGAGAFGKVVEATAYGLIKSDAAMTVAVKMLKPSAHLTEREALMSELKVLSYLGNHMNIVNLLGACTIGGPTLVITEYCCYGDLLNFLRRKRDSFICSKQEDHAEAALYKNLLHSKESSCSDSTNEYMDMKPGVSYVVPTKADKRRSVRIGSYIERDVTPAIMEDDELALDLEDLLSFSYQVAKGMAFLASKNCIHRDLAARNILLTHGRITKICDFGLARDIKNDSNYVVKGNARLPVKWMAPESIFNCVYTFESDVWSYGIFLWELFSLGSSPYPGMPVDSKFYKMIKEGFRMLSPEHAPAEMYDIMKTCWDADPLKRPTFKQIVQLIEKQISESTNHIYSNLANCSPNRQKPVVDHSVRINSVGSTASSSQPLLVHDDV
Chain of RET (human), P07949 [V804M] (P07949 whole entry V804M, looked up): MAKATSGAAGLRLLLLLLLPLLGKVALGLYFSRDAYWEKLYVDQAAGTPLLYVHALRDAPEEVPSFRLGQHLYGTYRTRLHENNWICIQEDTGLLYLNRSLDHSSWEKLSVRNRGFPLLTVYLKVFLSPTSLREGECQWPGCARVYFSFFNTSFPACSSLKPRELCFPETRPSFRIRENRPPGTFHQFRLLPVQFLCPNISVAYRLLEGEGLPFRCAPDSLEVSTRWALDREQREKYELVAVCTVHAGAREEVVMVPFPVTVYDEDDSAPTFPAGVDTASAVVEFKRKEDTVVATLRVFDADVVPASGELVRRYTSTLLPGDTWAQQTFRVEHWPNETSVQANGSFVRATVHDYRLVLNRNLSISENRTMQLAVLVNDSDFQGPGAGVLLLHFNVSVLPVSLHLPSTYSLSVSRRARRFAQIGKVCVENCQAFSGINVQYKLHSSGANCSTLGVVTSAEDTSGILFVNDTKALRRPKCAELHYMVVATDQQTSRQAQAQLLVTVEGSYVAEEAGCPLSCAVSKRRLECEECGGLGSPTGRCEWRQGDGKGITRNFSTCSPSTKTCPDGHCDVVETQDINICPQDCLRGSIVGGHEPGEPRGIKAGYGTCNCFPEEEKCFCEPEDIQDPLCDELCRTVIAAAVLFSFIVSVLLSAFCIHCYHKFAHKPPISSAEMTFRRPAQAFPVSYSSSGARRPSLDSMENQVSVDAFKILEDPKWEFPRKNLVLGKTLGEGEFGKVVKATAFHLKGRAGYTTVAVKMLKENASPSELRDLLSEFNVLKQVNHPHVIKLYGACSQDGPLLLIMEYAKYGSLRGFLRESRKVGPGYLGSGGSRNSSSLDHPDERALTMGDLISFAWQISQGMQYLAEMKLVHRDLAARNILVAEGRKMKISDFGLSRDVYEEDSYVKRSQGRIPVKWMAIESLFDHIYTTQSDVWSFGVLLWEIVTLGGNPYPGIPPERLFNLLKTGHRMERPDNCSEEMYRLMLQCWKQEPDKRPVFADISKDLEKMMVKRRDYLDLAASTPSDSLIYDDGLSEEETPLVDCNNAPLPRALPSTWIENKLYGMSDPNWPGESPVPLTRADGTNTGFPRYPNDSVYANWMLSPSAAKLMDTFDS
Chain of KIT (human), P10721 [V559D/V654A] (P10721 whole entry V559D/V654A, looked up): as the sequence (P10721 whole entry L576P, looked up) above, with V559D, P576L, V654A counted along it
Chain of RET (human), P07949 [M918T] (P07949 whole entry M918T, looked up): as the sequence (P07949 whole entry V804M, looked up) above, with M804V, M918T counted along it

| Structure (SMILES) | kinase still bound, per cent of control [1] | kinase still bound, per cent of control [2] | kinase still bound, per cent of control [3] | kinase still bound, per cent of control [4] | kinase still bound, per cent of control [5] | kinase still bound, per cent of control [6] | kinase still bound, per cent of control [7] | kinase still bound, per cent of control [8] | kinase still bound, per cent of control [9] | kinase still bound, per cent of control [10] | kinase still bound, per cent of control [11] | kinase still bound, per cent of control [12] |
| --- | --- | --- | --- | --- | --- | --- | --- | --- | --- | --- | --- | --- |
| CCOc1cc2ncc(C#N)c(Nc3ccc(OCc4ccccn4)c(Cl)c3)c2cc1NC(=O)/C=C/CN(C)C | 100% | 86% | 91% | 100% | 94% | – | – | – | – | – | – | – |
| C=CC(=O)Nc1cc(NC(=O)c2ccc(C)c(NC(=O)c3ccno3)c2)cc(C(F)(F)F)c1 | 100% | 100% | 100% | 100% | 100% | 23% | 100% | 97% | 63% | 2.3% | 100% | 100% |
| N#Cc1cc(-c2ccnc(Nc3ccc(-n4cnc(-c5cccnc5)n4)cc3)n2)cc(N2CCOCC2)c1 | 58% | 14% | 100% | 100% | 21% | 42% | 87% | 97% | 84% | 17% | 86% | 79% |
| CCN1CCN(Cc2ccc(NC(=O)c3ccc(C)c(/C=C/c4cnc5[nH]ccc5c4OC)c3)cc2C(F)(F)F)CC1 | 50% | 79% | 0% | 0% | 0.15% | 2.6% | 0% | 77% | 0.25% | 0% | 9.9% | 0% |
| O=C(NC1CC1)c1cccc(-c2ccc3c(NC(=O)C4CC4)n[nH]c3c2)c1 | 67% | 74% | 84% | 71% | 47% | 90% | 72% | 100% | 60% | 51% | 100% | 74% |
| CCCS(=O)(=O)Nc1ccc(F)c(C(=O)c2c[nH]c3ncc(Cl)cc23)c1F | 100% | 100% | 89% | 40% | 43% | 19% | 73% | 90% | 27% | 6.4% | 48% | 75% |
| CCCS(=O)(=O)Nc1ccc(F)c(C(=O)c2c[nH]c3ncc(-c4ccc(Cl)cc4)cc23)c1F | 100% | 78% | 91% | 28% | – | 26% | 71% | 100% | – | 0% | – | 78% |
| N#Cc1c(NC(=O)c2cccc3ccccc23)sc2c1CCCC2 | 88% | 71% | 92% | 95% | 84% | 100% | – | – | 95% | 79% | – | – |
| Cc1ccc2nc(NCCN)c3ncc(C)n3c2c1 | 100% | 100% | 100% | 100% | 100% | 100% | 100% | 100% | 100% | – | 50% | 100% |
| CC(=O)c1c(C)c2cnc(Nc3ccc(N4CCNCC4)cn3)nc2n(C2CCCC2)c1=O | 61% | 58% | 14% | – | 22% | – | 87% | 60% | 59% | 24% | 39% | – |
| O=C(NOC[C@H](O)CO)c1ccc(F)c(F)c1Nc1ccc(I)cc1F | 78% | 100% | 100% | 79% | 87% | 100% | 70% | 100% | – | 75% | 77% | 51% |
| N#C/C(=C1/Nc2ccccc2S1)c1ccnc(NCCc2cccnc2)n1 | 68% | 88% | 88% | 100% | 83% | 100% | – | – | 100% | 33% | – | – |
| O=C(O)c1ccc(Nc2ncc3c(n2)-c2ccc(Cl)cc2C(c2c(F)cccc2F)=NC3)cc1 | 100% | 51% | 89% | 54% | – | 60% | 34% | – | – | 60% | 50% | – |
| COc1cc2c(Nc3ccc(NC(=O)c4ccccc4)cc3)ncnc2cc1OCCCN1CCOCC1 | 34% | – | 12% | 0.1% | 13% | 5.8% | 14% | 85% | 35% | 0% | 42% | 26% |
| CCN(CCO)CCCOc1ccc2c(Nc3cc(CC(=O)Nc4cccc(F)c4)[nH]n3)ncnc2c1 | 14% | 30% | 5.5% | 0.2% | 4% | – | – | – | 28% | 0% | – | – |
